Structures are written as SMILES. ± gives the expanded uncertainty stated by the source.

Series [1] can be described thus: xn = mol fraction of the nth substance listed. The following applies: 298.15 K, 101 kPa, Liquid, Vibrating tube method.
The conditions of series [2]: 298.15 K; 101.33 kPa; Liquid; Vibrating tube method.
A short description of series [3]: refractive index (Na D-line) (dimensionless). The following applies: 298.15 K; 101.33 kPa; Liquid; Standard Abbe refractometry.

By mass density is commonly meant mass per unit of volume. In the case of `CCOS(=O)(=O)[O-].CC[n+]1ccccc1` [1-ethylpyridinium ethyl sulfate] + C1=CCCCC1, the mass density in series [1] (x2 = 0.041) was 1243.4 ± 1.8 kg/m3. Usually refractive index stands for the speed of light in vacuum divided by its phase velocity in the sample. Consider `c1ccccc1` [benzene], for which the mass density in series [2] stood at 873.57 ± 0.11 kg/m3. Besides, the refractive index in series [3] stood at 1.49774 ± 0.00068.

For `CCOS(=O)(=O)[O-].CC[n+]1ccccc1` [1-ethylpyridinium ethyl sulfate] + C1CCCCC1, the mass density in series [1] (x2 = 0.017) was found to be 1247.74 ± 1.8 kg/m3. For the compound `C1=CCCCC1` [cyclohexene], the mass density in series [2] turned out to be 805.69 ± 0.24 kg/m3. Moreover, the refractive index in series [3] worked out at 1.44378 ± 0.0007. For `C1CCCCC1` [cyclohexane], in that order: 773.8 ± 0.13 kg/m3 and 1.4236 ± 0.00068.

As for `CCOS(=O)(=O)[O-].CC[n+]1ccccc1` [1-ethylpyridinium ethyl sulfate] + CC1CCCCC1, the mass density in series [1] (x2 = 0.013) is recorded as 1248.79 ± 1.7 kg/m3. In the case of `C1CCCCCCC1` [cyclooctane], in series [2], the mass density is reported as 831.47 ± 0.12 kg/m3. Besides, the refractive index in series [3] is 1.45598 ± 0.00068. For `CCOS(=O)(=O)[O-].CC[n+]1ccccc1` [1-ethylpyridinium ethyl sulfate] + c1ccccc1, the mass density in series [1] (x2 = 0.406) is listed as 1171.69 ± 1.6 kg/m3. As to `CCOS(=O)(=O)[O-].CC[n+]1ccccc1` [1-ethylpyridinium ethyl sulfate] + C1CCCCCCC1, the mass density in series [1] (x2 = 0.009) turned out to be 1249.15 ± 1.2 kg/m3. As to `CCOS(=O)(=O)[O-].CC[n+]1ccccc1` [1-ethylpyridinium ethyl sulfate], the mass density in series [2] is 1252 ± 0.4 kg/m3. The refractive index in series [3] is 1.50525 ± 0.0007. For `CC1CCCCC1` [methylcyclohexane], the mass density in series [2] is listed as 765.02 ± 0.24 kg/m3. In addition, the refractive index in series [3] is given as 1.42062 ± 0.0007.

For the origin of these results see the NIST ThermoML archive (doi:10.1016/j.fluid.2013.10.033).
